# Reference: a melting point compilation (Tetko et al.; mined from patent text by program, amines drawn as free bases though some values may be those of a salt)
row,melting point [°C],SMILES
1,207,O=c1nc(-c2ccc(C(F)(F)F)cn2)sc2ccccc12
2,68 to 71,CC1(C)[C@@H](C(=O)Nc2cc(C(F)(F)F)n[nH]2)[C@@H]1c1ccccc1 (relative stereo)
3,> 160,CCCc1nc(C(O)C(C)(C)C)c(C(N)=O)n1Cc1ccc(-c2ccccc2C(=O)O)cc1 (centres undefined)
4,73.7 to 76.3,COCc1cc(C)nc2c(OCc3ccccc3)cccc12
5,145 to 146,CC(Sc1nnnn1-c1ccccc1)C(=C(C#N)C#N)c1ccccc1 (centres undefined)
6,149 to 151,CC1(C)CCC(C)(C)c2nc3c(nc21)CCc1c(-c2ccc(C(=O)O)cc2)cn(Cc2cccnc2)c1-3
7,119 to 122,NC(=O)[C@H]1[C@H](CS)N(Cc2ccccc2)C(=O)N1Cc1ccccc1
8,133 to 134,NCC(O)C1=CC2(CC2)c2ccccc21 (centres undefined)
9,161 to 168,Oc1ccc(CCNc2ncnc3scnc23)cc1
10,105 to 107,Cc1cnc(C(=O)O)cc1C(c1cc(F)ccc1F)S(=O)(=O)c1ccc(Cl)cc1 (centres undefined)
11,161 to 163,CC(C)C(S)C(=O)NC1(C(=O)NC(Cc2ccc(-c3ccccc3)cc2)C(=O)O)CCOCC1 (centres undefined)
12,217 to 219,O=P(O)(O)Cc1ccc(S(=O)(=O)c2ccccc2)cc1
13,134 to 135,CCc1ccc(-n2nc(Cl)cc2-c2ccc(S(C)(=O)=O)cc2)cc1[N+](=O)[O-]
14,117 to 118,CC(=O)NCCN1CCN(c2cccccc2=O)CC1
15,171 to 174,COc1ccc(C(=O)Nc2ccc(C(=O)c3ccccc3)cc2)cc1
16,114 to 115,N#CCCNC(=O)c1ccnc(-c2cccc3oc(Cc4cccc(C(F)(F)F)c4)cc23)c1
17,68 to 69,CCSc1cnc(Oc2ccc(Cl)c(Cl)c2)cc1C#N
18,68 to 70,CN1C(=O)N(CCC(COc2ccc(-c3ccc(C#N)cc3)cc2)N(O)C=O)C(=O)C1(C)C (centres undefined)
19,184,COc1nn(-c2cccc(NC(C)=O)c2)c(=O)n(Cc2ccc3c(c2)OC(F)(F)O3)c1=O
20,134 to 137,COC(=O)CCc1cccc(-n2c(C)nn(-c3ccc(C#N)cc3)c2=O)c1

row,melting point [°C],SMILES
1,66,C=CCOc1ccc(OC(C(=O)C(C)(C)C)n2cncn2)cc1 (centres undefined)
2,130,CCN(CC)c1ccc(-c2cc(-c3ccc(C(=O)O)cc3)ccc2CC(O)CO)cc1C(C)(C)C (centres undefined)
3,68 to 71,C=CCOC(=O)c1cccc(NC(=O)NCNC(=O)c2ccccc2C(=O)c2ccccc2)c1
4,58.1,CCCCc1cccc(-c2nc(C(C)C)n(C)n2)n1
5,277 to 279,Cc1n[nH]c2cc(-c3nn(Cc4oc5ccc(F)cc5c(=O)c4-c4ccccc4)c4ncnc(N)c34)ccc12
6,100 to 102,c1ccc(Oc2ccc(C3(Cn4cncn4)OCCO3)cc2)cc1
7,192,CCNC(=O)c1cccc(NC(=O)c2nnn(Cc3ccc(Cl)c(Cl)c3)c2C)c1
8,152 to 154,CC(C)c1cccc(C(C)C)c1NC(=O)NOC(c1ccccc1)c1ccccc1
9,139 to 140,COc1ccc(NC(=O)c2ccc(C(C)(C)CN)cc2)cc1
10,121 to 123,CCOC(=O)Cc1c(C)n(-c2ncnc3ccccc23)c2ccc(OC)cc12
11,168 to 170,CC(C)(C)OC(=O)N1CCC(n2cc(-c3ccc(Oc4ccccc4)cc3)c3c(N)ncnc32)CC1
12,142 to 143,Cc1ccc(-c2nnc(N3CCC(OC(=O)Oc4ccccc4)CC3)nc2-c2ccc(C)cc2)cc1
13,70 to 73,COc1ccc(/C=C(\C#N)c2ccccc2F)cc1OC1CCCC1
14,140,COC(=O)c1cncn1C1CC2CCCCC2c2ccccc21 (centres undefined)
15,85 to 86,Nc1ncnc2c1c(-c1ccc(Oc3ccccc3)cc1)cn2CCCCCCCCN1C(=O)c2ccccc2C1=O
16,206 to 207,CCc1nn2c(N3CCN(C)CC3)ccnc2c1S(=O)(=O)c1ccccc1
17,84 to 85,COc1ccccc1OCCCc1oc(-n2ccnc2C)nc1-c1ccc(Cl)cc1
18,118 to 120,COC(=O)c1ccc2ccc3ccccc3c(=O)c2c1
19,214 to 217,Cc1ccc(-c2c(-c3ccncc3)nc(-c3c(Cl)cccc3Cl)n2C)cc1

# Second part, the compound before the results:
row,SMILES,melting point [°C]
1,O=S(=O)(c1ccc(Nc2nccc(Nc3ccc(F)cc3)n2)cc1)N(CCN1CCCC1)[C@H]1CC[C@H](O)CC1,135
2,COc1cc(N)c(Cl)cc1C(=O)NCC1CCN(CCCCC(=O)c2ccc(O)cc2)CC1,154 to 156
3,CCCc1c(O[C@@H]2CCC[C@H](Sc3ccc(C(=O)CCC(=O)O)cc3)C2)ccc(C(C)=O)c1O (relative stereo),101 to 103
4,CNC(=O)C1=CC(CF)(CF)Oc2ccc(C(F)(F)C(F)(F)F)cc21,127 to 128
5,CCC(=C(N)N)[N+](=O)[O-],114 to 116
6,CC(C)(C)c1cc(C#N)c(O)cn1,185 to 195
7,COc1ccc(OCCCC2CCN(c3ccc(Cl)nn3)CC2)c(Cl)c1,101
8,COc1ccc(CN(C)CCc2ccc(NC(=O)c3cccc4c(=O)c5cccc(SC)c5[nH]c34)cc2)cc1OC,190
9,CCOC(=O)CCc1ccc(OC(C)C)nc1Oc1ccc(Cl)cc1Cl,42.5 to 43.5
10,NC(CC(=O)O)c1ccc2c(c1)OCO2 (centres undefined),223 to 224
11,CCCCCCCCNC1=CC(=O)c2c(OC)ccc(OC)c2C1=O,81 to 82
12,COC(=O)c1cc([N+](=O)[O-])c(C=Cc2ccc(OC)cc2)c([N+](=O)[O-])c1,142 to 143
13,COC(=O)c1ccc(C(=O)C=CN(C)C)cc1Cl,92 to 96
14,COC(=O)Nc1cccc(C(=O)C=CN(C)C)c1,210 to 211
15,CC(=O)O/N=C(\C)[C@H]1CC[C@H]2[C@@H]3CCC4=CC(=O)CC[C@]4(C)[C@H]3CC[C@]12C,158 to 160
16,CC1CC(=O)NN=C1c1ccc(Cl)c([N+](=O)[O-])c1 (centres undefined),186 to 188
17,CC(N)(C(=O)O)c1ccc(NC=C2C(=O)NC(=O)c3ccc(Br)cc32)cc1 (centres undefined),250 to 253
18,O=C(OCC1CCCCCCCCCC1)n1c(-c2cscn2)nc2ccccc21,86 to 87
19,Cc1cc(Br)cnc1CCCCc1cc(N)cc2c1C(N)=NS2(=O)=O,276 to 279
20,CCOC(=O)c1cc2cc(C(F)(F)F)ccc2[nH]1,134 to 137

row,SMILES,melting point [°C]
1,CCNC(CC)c1ccc(Cl)c2nc3n(c12)CCCN3c1ccc(Cl)cc1Cl (centres undefined),124 to 127
2,CCOC(=O)c1cc(=O)c2cccc(Br)c2o1,124 to 126
3,Cc1cc(C)nc(Nc2ccc(OC(F)F)cc2)n1,81 to 82
4,O=C1COc2ccc(N3C(=O)C4=C(CCCC4)C3=O)cc2N1CC1CCOCC1,187 to 189
5,N#CCc1ncccc1[N+](=O)[O-],106 to 108
6,CCCCCCCCCCCCCCP(=O)(OC)OC,32 to 33
7,CCOc1cccnc1CSCCN=C(NC)NC#N,126 to 128
8,C=CCc1cccc2c(=O)cc(-c3ccc(F)c(F)c3)oc12,127 to 130
9,CC(N)C(=O)N1CC(=O)N(CC(N)=O)C1(C)C (centres undefined),196 to 197
10,CC(C)(C)c1cc2c(c(C(C)(C)C)c1O)CC1(CCSCC1)O2,209
11,O=C1C=CC(=O)c2ncccc21,110
12,CCCCCCCCCCCCc1c[nH]c(C(=O)NN)c1,137 to 140
13,Clc1cc(Br)c2oc3c(Cl)c(Br)c(Cl)c(Br)c3c2c1,220 to 222
14,CCCCCCCCCCCCCCc1ccc(OCC(CO)OC)cc1 (centres undefined),43 to 45
15,Cn1nnnc1-c1cnc2cc(Cl)c(F)cc2c1O,326 to 330
16,Cc1ccc(OC2CCC3C4CC=C5CC(O[Si](C)(C)C(C)(C)C)CCC5(C)C4CCC23C)cc1 (centres undefined),137 to 138
17,O=C1CCCC(=O)C1=C(S)NCc1ccccc1,47 to 48
18,CN1CCN(c2cc3c(cc2F)c(=O)n(O)c(=O)n3-c2cccc(F)c2)CC1,176 to 178
19,CCC1(c2cccs2)OCC(=O)Nc2ccc(-c3coc(C#N)c3)cc21 (centres undefined),99 to 100
20,CCCOc1ncc(NC(=O)CC(=O)O)cc1-c1nc2c(CCC)nn(C)c2c(=O)[nH]1,261 to 262

row,SMILES,melting point [°C]
1,CS(=O)(=O)c1ccc(C2=C(c3ccc(Cl)cc3)C(=O)N(C3CCCCC3)C2)cc1,142 to 144
2,C=Cc1cnc2c(NC(=O)c3c(Cl)cccc3Cl)cccc2c1CCl,184 to 186
3,Cc1ccc(-c2ccc(CCCCC(=O)O)s2)cc1,124 to 127
4,COc1ccc2c(c1)c(-c1cc3nccnc3[nH]1)cn2CCO,270 to 273
5,COC(CBr)(CCCC(=O)NN)OC,58 to 60
6,O=C(NCCOC1CCCCO1)c1cc([N+](=O)[O-])cc([N+](=O)[O-])c1N(CCO)CCCl (centres undefined),106 to 108
7,Cc1ccc2c(c1)c(-c1ccc(F)cc1)c(Cl)n2C1CCN(CCN2CCN(C(C)C)C2=O)CC1,127 to 130
8,CC(C)(C)c1cc(-c2nnc(NC(N)=S)s2)cc(C(C)(C)C)c1O,> 80
9,CSc1nnc2c3cnn(C)c3ncn12,204 to 206
10,CNS(=O)(=O)CCc1ccc2[nH]cc(CCCN3C(=O)c4ccccc4C3=O)c2c1,169 to 170
11,CN1CCC(N2CC=CC3=C2C(O)c2ccc(Cl)cc2SC3)CC1 (centres undefined),158 to 160
12,CCCCN1CCC2(CC1)OC(=O)c1ccccc12,60 to 62
13,CON=C(C[N+](=O)[O-])NCc1cccnc1,77 to 78
14,COc1ccc([N+](=O)[O-])cc1NC(=O)CCCCC1CCSS1 (centres undefined),117
15,"CC1CCC2CC(=O)N(Cc3ccccc3)C3OC4(C)CCC1C23OO4 (single isomer, unassigned; (-))",177 to 179
16,CC/C=C\Cn1c(=O)sc2c(N)ncnc21,134 to 135
17,CC(Cc1ccc(OCc2ccccc2)cc1)NCC(O)c1cc2ccccc2o1 (centres undefined),111 to 122
18,CCN(CC)C(=O)CCC1CCN(Cc2cnc3cc(NC(=O)c4ccc(-c5ccc(F)cc5)cc4)c(C)cc3c2)CC1,150 to 154
19,CCOC(=O)c1ccc(N2CCC(N)CC2)nc1,148 to 150
20,COC1=CC(=O)C2=C(CC=CC2)C1=O,172
